We go through 22 substances from patent US20260174875A1 (Novo Nordisk A/S, priority 2023, published 2026).

One may read the pEC50 as the negative decadic logarithm of the EC50, by convention in mol/L.

pEC50: −log10 of the molar value. Read-outs that look alike come from different tables or passages of the source. Numbered stars: 1 amine (or outer) side, 2 acyl side, 3 side chain; on linkers, the order of the positions; unused ones are H or OH. Square brackets hold non-standard residues; d marks the D form. Side chains are listed from the residue outwards. * marks the point of attachment. C20 diacid = O=C(O)CCCCCCCCCCCCCCCCCCC(=O)*; C18 diacid = O=C(O)CCCCCCCCCCCCCCCCC(=O)*; C16 diacid = O=C(O)CCCCCCCCCCCCCCC(=O)*; γGlu = O=C(O)[C@H](CCC(=O)[*:2])N[*:1]; AEEA = NCCOCCOCC(=O)O; Aib = CC(C)(N)C(=O)O

In data set [1] the target is T1, human GIP receptor (hGIPR) (Homo sapiens, UniProt P48546).
T1 construct: expressed in transfected cells
T1 sequence (P48546 22-466): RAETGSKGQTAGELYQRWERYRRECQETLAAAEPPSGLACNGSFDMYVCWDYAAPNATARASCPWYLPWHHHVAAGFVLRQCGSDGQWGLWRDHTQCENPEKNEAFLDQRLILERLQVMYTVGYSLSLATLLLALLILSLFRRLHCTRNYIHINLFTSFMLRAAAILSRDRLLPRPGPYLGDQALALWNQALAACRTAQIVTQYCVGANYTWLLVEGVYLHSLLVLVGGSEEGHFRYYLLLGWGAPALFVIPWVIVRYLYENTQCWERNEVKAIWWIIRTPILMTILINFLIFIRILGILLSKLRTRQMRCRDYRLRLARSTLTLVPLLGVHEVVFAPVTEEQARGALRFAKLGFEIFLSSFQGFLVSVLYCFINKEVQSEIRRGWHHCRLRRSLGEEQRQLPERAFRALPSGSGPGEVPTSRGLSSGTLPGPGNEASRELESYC
Nature of the data set: GIP receptor assay, method A (CRE-luciferase reporter, BHK cells). Format: cell-based. The procedure, abridged: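 BHK cells co-expressing hGIPR and a CRE-luciferase reporter were stimulated for 3 h at 37 °C with a 7-point, 10-fold compound titration in duplicate. Buffer was DMEM, 10 mM HEPES, 1% ovalbumin, 0.1% Pluronic F-68, without HSA or with 1% (w/v) HSA. EC50 [pM] came from four-parameter logistic fits of luminescence.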
For orientation: In a reporter assay the amount or activity of a reporter protein is the signal.

A short description of data set [2]: Pharmacokinetic study in minipigs (i.v.). Format: in vivo, Göttingen minipigs. Particulars: female, Göttingen, minipig, plasma, iv; i.v. administration to minipigs, 2 nmol/kg; read-out: Terminal half-life t1/2 (converted). How it is done:
This is done in a pharmacokinetic (PK) study, where the terminal half-life (t1/2) of the compound or derivative in question is determined. By terminal half-life is meant the time it takes to halve a certain plasma concentration in the terminal elimination phase.
Female Göttingen minipigs, obtained from Ellegaard Göttingen Minipigs (Dalmose, Denmark), approximately 8-12 months of age and weighing approximately 20-30 kg were used in the studies.
After three weeks of acclimatisation two permanent central venous catheters were implanted in vena cava caudalis in each animal. The animals were allowed at least 10 days recovery after the surgery and were then used for repeated pharmacokinetic studies with a suitable wash-out period between successive dosing.
The compounds of the invention were formulated (40 nmol/ml) in the following vehicle: 8 mM phosphate; 250 mM glycerol; 0.007% polysorbate 20, pH 7.4.
Blood samples (for example 1.3 ml) were collected in EDTA (1.3 ml tube containing K3EDTA to yield 1.6 mg K3EDTA/ml blood) coated tubes and then centrifuged at 4° C. and 2000×g for 10 minutes.
Plasma was within 30 min after centrifugation pipetted into Micronic tubes stored on dry ice and were afterwards kept at −20° C. until analysed for plasma concentration of the compounds using LCMS.
Plasma concentrations of the peptides of the invention were assayed by plasma protein precipitation and analysed by liquid chromatography mass spectrometry (LC-MS). Calibrators were prepared by spiking blank plasma from minipigs with the compounds in the typical range from 0.05 to 200 nM. […] The supernatant was diluted with 1 volumes of Milli-Q water containing 1% Formic acid before injection on the LC-MS system. Individual plasma concentration-time profiles were analysed by a non-compartmental pharmacokinetic method (NCA) in Phoenix v. 6.4 (Pharsight Inc., Mountain View, CA, USA), and the resulting terminal half-lives (harmonic mean) determined. The LC-MS analysis was carried out using a TurboFlow HPLC system from Thermo Fisher Scientific (Bremen, Germany) coupled to either a Q Exactive Orbitrap or Altis Triple Quadrupole (TQ) Mass Spectrometer. […] The Orbitrap mass spectrometer were operating in positive ionization mode with a spray voltage of 4.0 kV using Parallel Reaction Monitoring scan mode using 5 m/z isolation windows on the most abundant charge state of the compounds with a resolution of 35K on the Orbitrap MS.
The data was processed using the Quan Browser in the Xcalibur software from Thermo Fisher Scientific (Bremen, Germany) by fitted the data to linear calibration curves (weighed 1/x^2), used for calculating the concentration in the plasma samples. Quality control samples were included.

Where [3] appears, read: hGIPR Potency, 1% HSA, EC50, method A, in the presence of 1% HSA.
[4] abbreviates: method A, absence of HSA, read-out: hGIPR Potency, no HSA, EC50.

For the substance “Y[Aib]EGTFTSDYSILLEEQAAREFIEWLLAGGPSSGAGQAPGQAPLASHLSTAQTQRLSAELHK([AEEA-AEEA-γGlu-C18 diacid])LATLPRTETGSGSP-NH2 [compound 58]”, the pEC50 is 11.12 in data set [1] (setting [3]) and 11.73 in data set [1] (setting [4]). Also, in data set [2], the half-life was 97 h.
Consider “H[Aib]HGTFTSDYSILLEEQAAREFIEWLLAGGPSSGAGQAPGQAPLASHLSTAQTQRLSAELHK([AEEA-AEEA-γGlu-C18 diacid])LATLPRTETGSGSP-NH2 [Compound 93]”, for which the figures for the pEC50 in data set [1] (setting [3]) and in data set [1] (setting [4]) were 11.07 and 11.60, respectively. Also, in data set [2], the half-life is 69 h.
Consider “Y[Aib]EGTFTSDYSILLEEQAAREFIEWLLAGGPSRGEASHLSTAQTQRLSAELHK([AEEA-AEEA-γGlu-C18 diacid])LATLPRTETGSGSP-NH2 [compound 68]”, for which the pEC50 is 10.92 in data set [1] (setting [3]) and 11.74 in data set [1] (setting [4]). The half-life in data set [2] was 125 h.
The matching figures for “Y[Aib]EGTFTSDYSILLEEQAAREFIEWLLAGGPSK([AEEA-AEEA-γGlu-C16 diacid])GEASELSTAALGRLSAELHELATLPRTETGSGSP-NH2 [Compound 11]”: 10.23, 11.77 and 119 h.
The matching figures for “H[Aib]HGTFTSDYSILLEEQAAREFIEWLLAGGPSK([AEEA-AEEA-γGlu-C20 diacid])GAPPPSGGGEASELSTAALGRLSAELHELATLPRTETGSGSP-NH2 [Compound 16]”: 9.31, 11.37 and 138 h.
With “H[Aib]HGTFTSDYSILLEEQAAREFIEWLLAGGPSK([AEEA-AEEA-γGlu-C18 diacid])GAPPPSGGGEASELSTAALGRLSAELHELATLPRTETGSGSP-NH2 [Compound 15]”, the pEC50 in data set [1] (setting [3]) was 9.45; in data set [1] (setting [4]) it was 11.49. The half-life in data set [2] is 122 h.
On to “H[Aib]HGTFTSDYSILLEEQAAREFIEWLLAGGPSSGAGQAPGQAPGASHLSTAQTQRLSAELHRLK([AEEA-AEEA-γGlu-C18 diacid])TLPRTETGSGSP-NH2 [Compound 91]”, for which the values for the pEC50 in data set [1] (setting [3]) and in data set [1] (setting [4]) were 11.03 and 11.49, respectively. In data set [2], the half-life was 43 h.
On to “H[Aib]HGTFTSDYSILLEEQAAREFIEWLLAGGPSK([AEEA-AEEA-γGlu-C16 diacid])GAPPPSGGGEASELSTAALGRLSAELHELATLPRTETGSGSP-NH2 [Compound 12]”, for which the pEC50 is 10.23 in data set [1] (setting [3]) and 11.58 in data set [1] (setting [4]). Further, the half-life in data set [2] was 81 h.
Consider “H[Aib]HGTFTSDYSILLEEQAAREFIEWLLAGGPSK([AEEA-AEEA-γGlu-C16 diacid])GAPPPSGGGEASHLSTAQTARLSAELHRLADLPRTETGSGSP-NH2 [Compound 61]”, for which the pEC50 in data set [1] (setting [3]) was 10.80; in data set [1] (hGIPR Potency, no HSA, EC50, method A, absence of HSA), 11.89. The half-life in data set [2] was 61 h.
“Y[Aib]EGTFTSDYSILLEEQAAREFIEWLLAGGPSSGAGQAPGQAPGASHLSTAQTQRLSAK([AEEA-AEEA-γGlu-C18 diacid])LHRLATLPRTETGSGSP-NH2 [compound 55]”: the pEC50 in data set [1] (setting [3]) was 10.99; in data set [1] (setting [4]) it was 11.52. Moreover, the half-life in data set [2] was 88 h.
Turning to “H[Aib]HGTFTSDYSILLEEQAAREFIEWLLAGGPSK([AEEA-AEEA-γGlu-C18 diacid])GAPPPSGGGGASELSTAALGRLSAELHRLATLPRTETGSGSP-NH2 [Compound 14]”, the pEC50 was 9.59 in data set [1] (setting [3]) and 11.23 in data set [1] (setting [4]).
The matching figures for “Y[Aib]EGTFTSDYSILLEEQAAREFIEWLLAGGPSK([AEEA-AEEA-γGlu-C16 diacid])GAPPPSGGGEASELSTAALGRLSAELHELATLPRTETGSGSP-NH2 [compound 10]”: 10.37 and 11.68.
The matching figures for “Y[Aib]EGTFTSDYSILLEEQAAREFIEWLLAGGPSSGEASHLSTAQTQRLSAELHRLK([AEEA-AEEA-γGlu-C18 diacid])TLPRTETGSGSP-NH2 [Compound 80]”: 10.69 and 11.40.
Consider “H[Aib]HGTFTSDYSILLEEQAAREFIEWLLAGGPSK([AEEA-AEEA-γGlu-C18 diacid])GEASQLSTAALGRLSAELHQLATLPRTETGSGSP-NH2 [Compound 64]”, for which the pEC50 in data set [1] (setting [3]) is 10.00; in data set [1] (setting [4]), 11.69. Moreover, the half-life in data set [2] is 117 h.
With “H[Aib]HGTFTSDYSILLEEQAAREFIEWLLAGGPSSGEASHLSTAALGRLSAK([AEEA-AEEA-γGlu-C18 diacid])LHRLATLPRTETGSGSP-NH2 [Compound 87]”, the values for the pEC50 in data set [1] (setting [3]) and in data set [1] (setting [4]) were 10.41 and 11.14, respectively.
Turning to “Y[Aib]EGTFTSDYSILLEEQAAREFIEWLLAGGPSSGAPPPSGGGEASHLSTAQTQRLSAK([AEEA-AEEA-γGlu-C20 diacid])LHRLATLPRTETGSGSP-NH2 [Compound 110]”, the pEC50 in data set [1] (setting [3]) is 10.53; in data set [1] (setting [4]) it was 11.10.
As to “Y[Aib]EGTFTSDYSILLEEQAAREFIEWLLAGGPSSGAGQAPGQAPGASHLSTAQTQRLSAELHRLATLPK([AEEA-AEEA-γGlu-C18 diacid])TETGSGSP-NH2 [Compound 57]”, the values for the pEC50 in data set [1] (setting [3]) and in data set [1] (setting [4]) were 11.23 and 11.70, respectively. The half-life in data set [2] is 90 h.
Consider “Y[Aib]EGTFTSDYSILLEEQAAREFIEWLLAGGPSSGAGQAPGQAPGASHLSTAQTQRLSAELHK([AEEA-AEEA-γGlu-C20 diacid])LATLPRTETGSGSP-NH2 [Compound 115]”, for which the half-life in data set [2] is 115 h.
With “Y[Aib]EGTFTSDYSILLEEQAAREFIEWLLAGGPSSGAPPPSGGGEASHLSTAQTQRLSAK([AEEA-AEEA-γGlu-C18 diacid])LHRLATLPRTETGSGSP-NH2 [Compound 109]”, the pEC50 in data set [1] (setting [3]) is 10.76; in data set [1] (setting [4]), 11.13.
Take “Y[Aib]EGTFTSDYSILLEEQAAREFIEWLLAGGPSK([AEEA-AEEA-γGlu-C18 diacid])GEASELSTAALGRLSAELHELATLPRTETGSGSP-NH2 [Compound 26]”: the pEC50 in data set [1] (setting [3]) was 9.25; in data set [1] (setting [4]) it was 11.76.
Regarding “H[Aib]HGTFTSDYSILLEEQAAREFIEWLLAGGPSK([AEEA-AEEA-γGlu-C18 diacid])GAPPPSGGGEASHLSTAQTARLSAELHQLATLPRTETGSGSP-NH2 [compound 101]”, the pEC50 was 9.89 in data set [1] (setting [3]) and 11.73 in data set [1] (setting [4]). Besides, the half-life in data set [2] was 122 h.
In the case of “Y[Aib]EGTFTSDYSILLEEQAAREFIEWLLAGGPSSGAGQAPGQAPGASHLSTAQTQRLSAELHK([AEEA-AEEA-γGlu-C18 diacid])LATLPRTETGSGSP-NH2 [compound 52]”, the pEC50 in data set [1] (setting [3]) is 11.17; in data set [1] (setting [4]), 11.74. The half-life in data set [2] is 120 h.
